Literature values, collected in patent publication US8383645B2 (Teva Pharmaceutical Industries, Ltd., priority 2006, dated 2013).

Test system: acute experimental autoimmune encephalomyelitis (aEAE) model
Conditions: U.S. Pat. No. 6,077,851

Q: For `CCN(C(=O)c1c(O)c2c(Cl)cccc2n(C)c1=O)c1ccccc1` [Laquinimod, N-ethyl-N-phenyl-1,2-dihydro-4-hydroxy-5-chloro-1-methyl-2-oxoquinoline-3-carboxamide], which “effectiveness in the aEAE model” value is on record?
A: effective
